According to patent US8084467B2, “Pyrazole derivatives as cannabinoid receptor antagonists” (University of Connecticut, priority 2004, dated 2011):

These compounds were tested against T1, CB1 cannabinoid receptor (Rattus norvegicus, UniProt P20272) (assay: CB1 receptor binding, rat forebrain membranes, [3H] CP-55,940 displacement). Settings: affinities Ki CB1, rat forebrain membranes, 0.8 nM [3H] CP-55,940.
T1 construct: membranes were prepared from rat forebrain membranes; from tissue; host or cells: rat forebrain
T1 sequence (P20272 whole entry): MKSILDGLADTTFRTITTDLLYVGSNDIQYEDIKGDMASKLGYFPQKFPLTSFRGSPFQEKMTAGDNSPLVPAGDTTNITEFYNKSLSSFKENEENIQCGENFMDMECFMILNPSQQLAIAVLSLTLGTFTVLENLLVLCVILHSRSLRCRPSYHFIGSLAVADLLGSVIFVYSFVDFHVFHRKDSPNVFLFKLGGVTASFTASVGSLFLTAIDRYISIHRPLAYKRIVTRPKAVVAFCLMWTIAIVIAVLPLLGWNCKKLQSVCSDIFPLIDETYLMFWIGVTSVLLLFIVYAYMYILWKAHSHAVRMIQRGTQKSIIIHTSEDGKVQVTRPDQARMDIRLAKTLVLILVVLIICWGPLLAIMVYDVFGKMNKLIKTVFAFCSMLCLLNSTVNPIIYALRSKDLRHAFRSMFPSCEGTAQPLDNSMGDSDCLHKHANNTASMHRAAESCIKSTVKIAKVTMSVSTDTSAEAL
Procedure: Some of the inventive analogs were tested for CB2 receptor binding affinity and for CB1 receptor affinity (to determine selectivity). […] The lower the Ki value the higher the binding affinity. […]
Membranes, previously frozen at −80° C., were thawed on ice. To the stirred suspension was added three volumes of TME (25 mM Tris-HCl buffer, 5 mM MgCl2 and 1 mM EDTA) at a pH 7.4. The suspension was incubated at 4° C. for 30 min. At the end of the incubation, the membranes were pelleted and washed three times with TME.
(§1) The treated membranes were subsequently used in the binding assay described below. Approximately 30 μg of membranes were incubated in silanized 96-well microtiter plate with TME containing 0.1% essentially fatty acid-free bovine serum albumin (BSA), 0.8 nM [^3H] […] Radioactivity was detected using MicroScint 20 scintillation cocktail added directly to the dried filterplates, and the filterplates were counted using a Packard Instruments Top-Count. […] Data collected from three independent experiments performed with duplicate determinations was normalized between 100% and 0% specific binding for [^3H] […] The normalized data was analyzed using a 4-parameter nonlinear logistic equation to yield IC50 values.

SMILES	Ki
CN(C(=O)c1nn(-c2ccc(Cl)cc2Cl)c(-c2ccc(I)cc2)c1CO)C1CCCCC1 [Compound 3-2]	18 nM
O=C(NN1CCCCC1)c1nn(-c2ccc(Cl)cc2Cl)c(-c2ccc(Br)cc2)c1CO [Compound 3-3]	46 nM

Same assay, conditions: rat forebrain membranes, 0.8 nM [3H] CP-55,940; read-out: affinities Ki CB1

SMILES	Ki
Cc1c(NC(=O)NC2CCCCC2)nn(-c2ccc(Cl)cc2Cl)c1-c1ccc(-c2cccnc2)cc1 [Compound 2-22]	29 nM
CN(C(=O)c1nn(-c2ccc(Cl)cc2Cl)c(-c2ccc(Br)cc2)c1CO)C1CCCCC1 [Compound 3-1]	29 nM
CN(C(=O)c1nn(-c2ccc(Cl)cc2Cl)c(-c2ccc(-c3cccnc3)cc2)c1CO)C1CCCCC1 [Compound 3-4]	227 nM
CN(C(=O)c1nn(-c2ccc(Cl)cc2Cl)c(-c2ccc(-c3ccncc3)cc2)c1CO)C1CCCCC1 [Compound 3-5]	90 nM
Cc1c(C(=O)N(C)C2CCCCC2)nn(-c2ccc(Cl)cc2Cl)c1-c1ccc(-c2ccncc2)cc1 [Compound 3-6]	189 nM
O=C(Nc1nn(-c2ccc(Cl)cc2Cl)c(-c2ccc(Br)cc2)c1CBr)NC1CCCCC1 [Compound 3-7]	38 nM
Cc1c(NC(=O)NC2CCCCC2)nn(-c2ccc(Cl)cc2Cl)c1-c1ccc(Br)cc1 [Compound 3-8]	6.8 nM
Cc1c(NC(=O)OC2CCCCC2)nn(-c2ccc(Cl)cc2Cl)c1-c1ccc(Br)cc1 [Compound 3-9]	69 nM
Cc1c(NC(=O)NC2CCCCC2)nn(-c2ccc(Cl)cc2Cl)c1-c1ccc(I)cc1 [Compound 3-10]	26 nM
Cc1c(NC(=O)N(C)C2CCCCC2)nn(-c2ccc(Cl)cc2Cl)c1-c1ccc(Br)cc1 [Compound 3-11]	29 nM
Cc1c(NC(=O)NC23CC4CC(CC(C4)C2)C3)nn(-c2ccc(Cl)cc2Cl)c1-c1ccc(Br)cc1 [Compound 3-12]	259 nM
Cc1c(NC(=O)N2CCCCC2)nn(-c2ccc(Cl)cc2Cl)c1-c1ccc(Br)cc1 [Compound 3-13]	47 nM
Cc1c(NC(=O)C2CCCCC2)nn(-c2ccc(Cl)cc2Cl)c1-c1ccc(Br)cc1 [Compound 3-14]	4230 nM
Cc1c(C(=O)N(C)C2CCCCC2)nn(-c2ccc(Cl)cc2Cl)c1-c1ccc(C#N)cc1 [Compound 3-15]	50 nM
Cc1c(C(=O)NN2CCCCC2)nn(-c2ccc(Cl)cc2Cl)c1-c1ccc(Br)cc1 [Compound 3-16]	17 nM
O=C(NC1CCCCC1)c1nn(-c2ccc(Cl)cc2Cl)c(-c2ccc(Br)cc2)c1CBr [Compound 3-17]	46 nM
O=C(NC1CCCCC1)c1nn(-c2ccc(Cl)cc2Cl)c(-c2ccc(Br)cc2)c1CO [Compound 3-18]	6 nM
O=C(NN1CCCCC1)c1nn(-c2ccc(-c3cccnc3)cc2Cl)c(-c2ccc(-c3cccnc3)cc2)c1CO [Compound 3-19]	146 nM
O=C(NN1CCCCC1)c1nn(-c2ccc(-c3cccnc3)cc2Cl)c(-c2ccc(-c3cccnc3)cc2)c1CO [Compound 3-20]	154 nM

Same assay, conditions: ratio of CB2 Ki to CB1 Ki

SMILES	selectivity CB1
Cc1c(NC(=O)NC2CCCCC2)nn(-c2ccc(Cl)cc2Cl)c1-c1ccc(-c2cccnc2)cc1 [Compound 2-22]	374.6
CN(C(=O)c1nn(-c2ccc(Cl)cc2Cl)c(-c2ccc(Br)cc2)c1CO)C1CCCCC1 [Compound 3-1]	62.1
CN(C(=O)c1nn(-c2ccc(Cl)cc2Cl)c(-c2ccc(I)cc2)c1CO)C1CCCCC1 [Compound 3-2]	29.3
O=C(NN1CCCCC1)c1nn(-c2ccc(Cl)cc2Cl)c(-c2ccc(Br)cc2)c1CO [Compound 3-3]	10.6
CN(C(=O)c1nn(-c2ccc(Cl)cc2Cl)c(-c2ccc(-c3cccnc3)cc2)c1CO)C1CCCCC1 [Compound 3-4]	3.3
CN(C(=O)c1nn(-c2ccc(Cl)cc2Cl)c(-c2ccc(-c3ccncc3)cc2)c1CO)C1CCCCC1 [Compound 3-5]	3.3
Cc1c(C(=O)N(C)C2CCCCC2)nn(-c2ccc(Cl)cc2Cl)c1-c1ccc(-c2ccncc2)cc1 [Compound 3-6]	17.4
O=C(Nc1nn(-c2ccc(Cl)cc2Cl)c(-c2ccc(Br)cc2)c1CBr)NC1CCCCC1 [Compound 3-7]	3.6
Cc1c(NC(=O)NC2CCCCC2)nn(-c2ccc(Cl)cc2Cl)c1-c1ccc(Br)cc1 [Compound 3-8]	635.2
Cc1c(NC(=O)OC2CCCCC2)nn(-c2ccc(Cl)cc2Cl)c1-c1ccc(Br)cc1 [Compound 3-9]	6.5
Cc1c(NC(=O)NC2CCCCC2)nn(-c2ccc(Cl)cc2Cl)c1-c1ccc(I)cc1 [Compound 3-10]	838.1
Cc1c(NC(=O)N(C)C2CCCCC2)nn(-c2ccc(Cl)cc2Cl)c1-c1ccc(Br)cc1 [Compound 3-11]	31.6
Cc1c(NC(=O)NC23CC4CC(CC(C4)C2)C3)nn(-c2ccc(Cl)cc2Cl)c1-c1ccc(Br)cc1 [Compound 3-12]	2.9
Cc1c(NC(=O)N2CCCCC2)nn(-c2ccc(Cl)cc2Cl)c1-c1ccc(Br)cc1 [Compound 3-13]	6.0
Cc1c(NC(=O)C2CCCCC2)nn(-c2ccc(Cl)cc2Cl)c1-c1ccc(Br)cc1 [Compound 3-14]	6.4
Cc1c(C(=O)N(C)C2CCCCC2)nn(-c2ccc(Cl)cc2Cl)c1-c1ccc(C#N)cc1 [Compound 3-15]	216.5
Cc1c(C(=O)NN2CCCCC2)nn(-c2ccc(Cl)cc2Cl)c1-c1ccc(Br)cc1 [Compound 3-16]	52.8
O=C(NC1CCCCC1)c1nn(-c2ccc(Cl)cc2Cl)c(-c2ccc(Br)cc2)c1CBr [Compound 3-17]	75.5
O=C(NC1CCCCC1)c1nn(-c2ccc(Cl)cc2Cl)c(-c2ccc(Br)cc2)c1CO [Compound 3-18]	353.3
O=C(NN1CCCCC1)c1nn(-c2ccc(-c3cccnc3)cc2Cl)c(-c2ccc(-c3cccnc3)cc2)c1CO [Compound 3-19]	13.2
O=C(NN1CCCCC1)c1nn(-c2ccc(-c3cccnc3)cc2Cl)c(-c2ccc(-c3cccnc3)cc2)c1CO [Compound 3-20]	10.9

What follows are compounds tested against T2, CB2 receptor (Mus musculus, UniProt P47936) (assay: CB2 receptor binding, mouse spleen membranes, same manner as the CB1 binding assay). Settings: affinities Ki CB2, mouse spleen membranes, [3H] CP-55,940.
T2 construct: membranes were prepared from frozen mouse spleen; from tissue; host or cells: mouse spleen
T2 sequence (P47936 whole entry): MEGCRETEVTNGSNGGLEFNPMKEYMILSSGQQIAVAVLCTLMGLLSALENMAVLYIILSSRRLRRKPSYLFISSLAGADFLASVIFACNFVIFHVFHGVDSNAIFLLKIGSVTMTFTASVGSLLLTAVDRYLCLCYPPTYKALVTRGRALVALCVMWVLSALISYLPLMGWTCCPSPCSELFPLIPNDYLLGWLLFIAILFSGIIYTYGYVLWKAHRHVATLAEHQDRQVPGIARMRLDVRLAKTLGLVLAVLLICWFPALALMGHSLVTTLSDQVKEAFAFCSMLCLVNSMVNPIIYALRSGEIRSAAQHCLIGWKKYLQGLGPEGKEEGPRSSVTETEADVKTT
Procedure: Some of the inventive analogs were tested for CB2 receptor binding affinity and for CB1 receptor affinity (to determine selectivity). […] The lower the Ki value the higher the binding affinity.
as §1
Silanized centrifuge tubes were used throughout to minimize receptor loss due to adsorption. The CB2 binding assay was conducted in the same manner as for the CB1 binding assay. The binding affinities (Ki) were also expressed in nanomoles (nM).

SMILES	Ki
CN(C(=O)c1nn(-c2ccc(Cl)cc2Cl)c(-c2ccc(I)cc2)c1CO)C1CCCCC1 [Compound 3-2]	528 nM
O=C(NN1CCCCC1)c1nn(-c2ccc(Cl)cc2Cl)c(-c2ccc(Br)cc2)c1CO [Compound 3-3]	490 nM
Cc1c(NC(=O)C2CCCCC2)nn(-c2ccc(Cl)cc2Cl)c1-c1ccc(Br)cc1 [Compound 3-14]	27100 nM

Same assay, conditions: mouse spleen membranes, [3H] CP-55,940; read-out: affinities Ki CB2

SMILES	Ki
Cc1c(NC(=O)NC2CCCCC2)nn(-c2ccc(Cl)cc2Cl)c1-c1ccc(-c2cccnc2)cc1 [Compound 2-22]	10900 nM
CN(C(=O)c1nn(-c2ccc(Cl)cc2Cl)c(-c2ccc(Br)cc2)c1CO)C1CCCCC1 [Compound 3-1]	1800 nM
CN(C(=O)c1nn(-c2ccc(Cl)cc2Cl)c(-c2ccc(-c3cccnc3)cc2)c1CO)C1CCCCC1 [Compound 3-4]	759 nM
CN(C(=O)c1nn(-c2ccc(Cl)cc2Cl)c(-c2ccc(-c3ccncc3)cc2)c1CO)C1CCCCC1 [Compound 3-5]	294 nM
Cc1c(C(=O)N(C)C2CCCCC2)nn(-c2ccc(Cl)cc2Cl)c1-c1ccc(-c2ccncc2)cc1 [Compound 3-6]	3290 nM
O=C(Nc1nn(-c2ccc(Cl)cc2Cl)c(-c2ccc(Br)cc2)c1CBr)NC1CCCCC1 [Compound 3-7]	136 nM
Cc1c(NC(=O)NC2CCCCC2)nn(-c2ccc(Cl)cc2Cl)c1-c1ccc(Br)cc1 [Compound 3-8]	4320 nM
Cc1c(NC(=O)OC2CCCCC2)nn(-c2ccc(Cl)cc2Cl)c1-c1ccc(Br)cc1 [Compound 3-9]	449 nM
Cc1c(NC(=O)NC2CCCCC2)nn(-c2ccc(Cl)cc2Cl)c1-c1ccc(I)cc1 [Compound 3-10]	21800 nM
Cc1c(NC(=O)N(C)C2CCCCC2)nn(-c2ccc(Cl)cc2Cl)c1-c1ccc(Br)cc1 [Compound 3-11]	917 nM
Cc1c(NC(=O)NC23CC4CC(CC(C4)C2)C3)nn(-c2ccc(Cl)cc2Cl)c1-c1ccc(Br)cc1 [Compound 3-12]	756 nM
Cc1c(NC(=O)N2CCCCC2)nn(-c2ccc(Cl)cc2Cl)c1-c1ccc(Br)cc1 [Compound 3-13]	284 nM
Cc1c(C(=O)N(C)C2CCCCC2)nn(-c2ccc(Cl)cc2Cl)c1-c1ccc(C#N)cc1 [Compound 3-15]	10800 nM
Cc1c(C(=O)NN2CCCCC2)nn(-c2ccc(Cl)cc2Cl)c1-c1ccc(Br)cc1 [Compound 3-16]	897 nM
O=C(NC1CCCCC1)c1nn(-c2ccc(Cl)cc2Cl)c(-c2ccc(Br)cc2)c1CBr [Compound 3-17]	3480 nM
O=C(NC1CCCCC1)c1nn(-c2ccc(Cl)cc2Cl)c(-c2ccc(Br)cc2)c1CO [Compound 3-18]	2120 nM
O=C(NN1CCCCC1)c1nn(-c2ccc(-c3cccnc3)cc2Cl)c(-c2ccc(-c3cccnc3)cc2)c1CO [Compound 3-19]	1920 nM
O=C(NN1CCCCC1)c1nn(-c2ccc(-c3cccnc3)cc2Cl)c(-c2ccc(-c3cccnc3)cc2)c1CO [Compound 3-20]	1680 nM
